Data published in patent US20230040770A1, “HETEROCYCLIC COMPOUND AND USE THEREOF” (TAKEDA PHARMACEUTICAL COMPANY LIMITED, priority 2019, published 2023).

Molecular target: T1, human orexin type 2 receptor (Homo sapiens, UniProt O43614)
T1 construct: expressed in transfected cells
T1 sequence (O43614 1-444): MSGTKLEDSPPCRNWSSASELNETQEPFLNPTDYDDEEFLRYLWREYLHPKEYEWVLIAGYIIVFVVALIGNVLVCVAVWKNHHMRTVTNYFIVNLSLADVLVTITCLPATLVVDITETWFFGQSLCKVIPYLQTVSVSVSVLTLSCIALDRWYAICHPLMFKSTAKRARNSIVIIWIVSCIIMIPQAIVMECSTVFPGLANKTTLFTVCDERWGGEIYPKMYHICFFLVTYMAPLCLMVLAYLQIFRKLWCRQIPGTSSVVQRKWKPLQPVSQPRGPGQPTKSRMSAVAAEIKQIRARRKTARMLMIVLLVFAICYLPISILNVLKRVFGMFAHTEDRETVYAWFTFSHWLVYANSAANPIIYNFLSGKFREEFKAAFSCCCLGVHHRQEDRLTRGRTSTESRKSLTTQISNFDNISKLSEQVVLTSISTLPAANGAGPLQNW
Experiment: Measurement of orexin type 2 receptor agonist activity (calcium indicator fluorescence, CHO cells forcibly expressing human OX2 receptor)
Format: cell-based
Settings: compound at 3 μM; 0% = DMSO, 100% = orexin A (human) 10 nM
Summary of the method: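 Agonist response normalised between vehicle (0%) and orexin A at 10 nM final (100%), from kinetic Fluo-4 calcium signals recorded for about 2 min after compound addition. Cells: stable human OX2R CHO clone, dye-loaded 30 min at 37 °C plus 30 min at room temperature.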

| OX2R agonist activity (3 μM, %) [%] | Compound |
| --- | --- |
| 92 | CS(=O)(=O)N[C@H]1[C@@H](F)CN(C(=O)C2CCO2)[C@H]1Cc1cccc(-c2cccc(F)c2)c1F (stereo partly drawn) [Example 323, N-[(2S,3R,4S)-2-[(2,3′-difluoro[1,1′-biphenyl]-3-yl)methyl]-4-fluoro-1-(oxetane-2-carbonyl)pyrrolidin-3-yl]methanesulfonamide] |
| 91 | CS(=O)(=O)N[C@H]1[C@@H](F)CN(C(=O)C2CCO2)[C@H]1Cc1cccc(-c2cc(F)cc(F)c2)c1F (stereo partly drawn) [Example 324, N-{(2S,3R,4S)-4-fluoro-1-(oxetane-3-2-carbonyl)-2-[(2,3′,5′-trifluoro[1,1′-biphenyl]-3-yl)methyl]pyrrolidin-3-yl}methanesulfonamide] |
| 88 | CCS(=O)(=O)N[C@H]1[C@@H](F)CN(C(=O)N(C)C)[C@H]1Cc1cccc(-c2cc(F)cc(F)c2)c1F [Example 329, (2S,3R,4S)-3-[(ethanesulfonyl)amino]-4-fluoro-N,N-dimethyl-2-[(2,3′,5′-trifluoro[1,1′-biphenyl]-3-yl)methyl]pyrrolidine-1-carboxamide] |
| 98 | CCS(=O)(=O)N[C@H]1[C@@H](F)CN(C(=O)N(C)C)[C@H]1Cc1cccc(-c2cccc(F)c2F)c1F [Example 330, (2S,3R,4S)-3-[(ethanesulfonyl)amino]-4-fluoro-N,N-dimethyl-2-[(2,2′,3′-trifluoro[1,1′-biphenyl]-3-yl)methyl]pyrrolidine-1-carboxmaide] |
| 78 | CCS(=O)(=O)N[C@H]1[C@@H](F)CN(C(=O)N(C)C)[C@H]1Cc1cccc(-c2cccc(C)c2)c1F [Example 333, (2S,3R,4S)-3-[(ethanesulfonyl)amino]-4-fluoro-2-[(2-fluoro-3′-methyl[1,1′-biphenyl]-3-yl)methyl]-N,N-dimethylpyrrolidine-1-carboxamide] |
| 102 | CN(C)C(=O)N1C[C@H](F)[C@H](NS(=O)(=O)N(C)C)[C@@H]1Cc1cccc(-c2cccc(F)c2)c1F [Example 344, (2S,3R,4S)-2-[(2,3′-difluoro[1,1′-biphenyl]-3-yl)methyl]-3-[(dimethylsulfamoyl)amino]-4-fluoro-N,N-dimethylpyrrolidine-1-carboxamide] |
| 92 | CCS(=O)(=O)N[C@H]1[C@@H](F)CN(C(=O)C(C)(C)O)[C@H]1Cc1cccc(-c2cc(F)cc(Cl)c2)c1F [Example 345, N-[(2S,3R,4S)-2-[(3′-chloro-2,5′-difluoro[1,1′-biphenyl]-3-yl)methyl]-4-fluoro-1-(2-hydroxy-2-methylpropanoyl)pyrrolidin-3-yl]ethanesulfonamide] |
| 93 | CCS(=O)(=O)N[C@H]1[C@@H](F)CN(C(=O)C(C)(C)O)[C@H]1Cc1cccc(-c2cccc(Cl)c2)c1F [Example 346, N-[(2S,3R,4S)-2-[(3′-chloro-2-fluoro[1,1′-biphenyl]-3-yl)methyl]-4-fluoro-1-(2-hydroxy-2-methylpropanoyl)pyrrolidin-3-yl]ethanesulfonamide] |
| 102 | CCS(=O)(=O)N[C@H]1[C@@H](F)CN(C(=O)C(C)(C)O)[C@H]1Cc1cccc(-c2cccc(Cl)c2F)c1F [Example 347, N-[(2S,3R,4S)-2-[(3′-chloro-2,2′-difluoro[1,1′-biphenyl]-3-yl)methyl]-4-fluoro-1-(2-hydroxy-2-methylpropanoyl)pyrrolidin-3-yl]ethanesulfonamide] |
| 97 | CCS(=O)(=O)N[C@@H]1[C@H](Cc2cccc(-c3cc(F)ccc3F)c2F)N(C(=O)C2CCO2)CC1(F)F (stereo partly drawn) [Example 356, N-{(2S,3R)-4,4-difluoro-1-(oxetane-2-carbonyl)-2-[(2,2′,5′-trifluoro[1,1′-biphenyl]-3-yl)methyl]pyrrolidin-3-yl}ethanesulfonamide] |
| 89 | O=C(C1CC1)N1C[C@H](F)[C@H](NS(=O)(=O)C2CC2)[C@@H]1Cc1cccc(-c2cccc(F)c2)c1F [Example 372, N-{(2S,3R,4S)-1-(cyclopropanecarbonyl)-2-[(2,3′-difluoro[1,1′-biphenyl]-3-yl)methyl]-4-fluoropyrrolidin-3-yl}cycloproapnesulfonamide] |
| 88 | O=C(C1CC1)N1C[C@H](F)[C@H](NS(=O)(=O)C2CC2)[C@@H]1Cc1cccc(-c2cc(F)cc(F)c2)c1F [Example 373, N-{(2S,3R,4S)-1-(cyclopropanecarbonyl)-4-fluoro-2-[(2,3′,5′-trifluoro[1,1′-biphenyl]-3-yl)methyl]pyrrolidin-3-yl}cyclopropanesulfonamide] |

The remaining lines, values behind:

| Compound | OX2R agonist activity (3 μM, %) [%] |
| --- | --- |
| CC(C)C(=O)N1C[C@H](F)[C@H](NS(C)(=O)=O)[C@@H]1Cc1cccc(-c2cccc(F)c2F)c1F [Example 314, N-{(2S,3R,4S)-4-fluoro-1-(2-methylpropanoyl)-2-[(2,2′,3′-trifluoro[1,1′-biphenyl]-3-yl)methyl]pyrrolidin-3-yl}methanesufonamide] | 109 |
| CC(C)C(=O)N1C[C@H](F)[C@H](NS(C)(=O)=O)[C@@H]1Cc1cccc(-c2cc(F)cc(F)c2)c1F [Example 316, N-{(2S,3R,4S)-4-fluoro-1-(2-methylpropanoyl)-2-[(2,3′,5′-trifluoro[1,1′-biphenyl]-3-yl)methyl]pyrrolidin-3-yl}methanesulfonamide] | 101 |
| CS(=O)(=O)N[C@H]1[C@@H](F)CN(C(=O)C2CCO2)[C@H]1Cc1cccc(-c2cccc(Cl)c2)c1F (stereo partly drawn) [Example 328, N-[(2S,3R,4S)-2-[(3′-chloro-2-fluoro[1,1′-biphenyl]-3-yl)methyl]-4-fluoro-1-(oxetane-2-carbonyl)pyrrolidin-3-yl]methanesulfonamide] | 86 |
| CCS(=O)(=O)N[C@H]1[C@@H](F)CN(C(=O)N(C)C)[C@H]1Cc1cccc(-c2cccc(Cl)c2)c1F [Example 332, (2S,3R,4S)-2-[(3′-chloro-2-fluoro[1,1′-biphenyl]-3-yl)methyl]-3-[(ethanesulfonyl)amino]-4-fluoro-N,N-dimethylpyrrolidine-1-carboxamide] | 95 |
| CCS(=O)(=O)N[C@H]1[C@@H](F)CN(C(=O)C(C)(C)O)[C@H]1Cc1cccc(-c2cc(Cl)ccc2F)c1F [Example 348, N-[(2S,3R,4S)-2-[(5′-chloro-2,2′-difluoro[1,1′-biphenyl]-3-yl)methyl]-4-fluoro-1-(2-hydroxy-2-methylpropanoyl)pyrrolidin-3-yl]ethanesulfonamide] | 103 |
| CCS(=O)(=O)N[C@@H]1[C@H](Cc2cccc(-c3cccc(F)c3F)c2F)N(C(=O)C2CC(F)C2)CC1(F)F (stereo partly drawn) [Example 349, N-{(2S,3R)-4,4-difluoro-1-(3-fluorocyclobutane-1-carbonyl)-2-[(2,2′,3′-trifluoro[1,1′-biphenyl]-3-yl)methyl]pyrrolidin-3-yl}ethanesulfonamide] | 98 |
| CCS(=O)(=O)N[C@H]1[C@@H](F)CN(C(=O)C23CC(C2)C3)[C@H]1Cc1cccc(-c2cc(F)cc(F)c2)c1F [Example 365, N-{(2S,3R,4S)-1-(bicyclo[1.1.1]pentane-1-carbonyl)-4-fluoro-2-[(2,3′,5′-trifluoro[1,1′-biphenyl]-3-yl)methyl]pyrrolidin-3-yl}ethanesulfonamide] | 93 |
| CCS(=O)(=O)N[C@H]1[C@@H](F)CN(C(=O)C23CC(C2)C3)[C@H]1Cc1cccc(-c2cccc(F)c2F)c1F [Example 366, N-{(2S,3R,4S)-1-(bicyclo[1.1.1]pentane-1-carbonyl)-4-fluoro-2-[(2,2′,3′-trifluoro[1,1′-biphenyl]-3-yl)methyl]pyrrolidin-3-yl}ethanesulfonamdie] | 96 |
| CCS(=O)(=O)N[C@H]1[C@@H](F)CN(C(=O)C2CCO2)[C@H]1Cc1cccc(-c2cccc(Cl)c2)c1F (stereo partly drawn) [Example 368, N-[(2S,3R,4S)-2-[(3′-chloro-2-fluoro[1,1′-biphenyl]-3-yl)methyl]-4-fluoro-1-(oxetane-2-carbonyl)pyrrolidin-3-yl]ethanesulfonamide] | 95 |
| CC(C)(O)C(=O)N1C[C@H](F)[C@H](NS(=O)(=O)C2CC2)[C@@H]1Cc1cccc(-c2cccc(F)c2)c1F [Example 369, N-[(2S,3R,4S)-2-[(2,3′-difluoro[1,1′-biphenyl]-3-yl)methyl]-4-fluoro-1-(2-hydroxy-2-methylpropanoyl)pyrrolidin-3-yl]cyclopropanesulfonamide] | 85 |
| CC(C)(O)C(=O)N1C[C@H](F)[C@H](NS(=O)(=O)C2CC2)[C@@H]1Cc1cccc(-c2cc(F)cc(F)c2)c1F [Example 370, N-{(2S,3R,4S)-4-fluoro-1-(2-hydroxy-2-methylpropanoyl)-2-[(2,3′,5′-trifluoro[1,1′-biphenyl]-3-yl)methyl]pyrrolidin-3-yl}cyclopropanesulfonamide] | 91 |
| CC(C)(O)C(=O)N1C[C@H](F)[C@H](NS(=O)(=O)C2CC2)[C@@H]1Cc1cccc(-c2cccc(F)c2F)c1F [Example 371, N-{(2S,3R,4S)-4-fluoro-1-(2-hydroxy-2-methylpropanoyl)-2-[(2,2′,3′-trifluoro[1,1′-biphenyl]-3-yl)methyl]pyrrolidin-3-yl}cyclopropanesulfonamide] | 94 |
